Results: patent US20230085307A1, “PYRIDAZINONE COMPOUND AND HERBICIDE” (NISSAN CHEMICAL CORPORATION, priority 2019, published 2023)

Tests used:
southern crabgrass [1] = assay: Test Example 4: herbicidal effect by soil treatment (Table 19, symbol F); format: in vivo, southern crabgrass (Digitaria ciliaris)
Procedure, shortened: (§1)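 Soil-surface application: an emulsion agent diluted with water to the predetermined dose is sprayed uniformly over seeds lying under roughly 1.5 cm of sterilized diluvial soil. Boxes stay in a greenhouse at 25° C. to 30° C. Three weeks later, each species is graded on previously defined criteria.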

Chinese sprangletop = assay: Test Example 3: herbicidal effect by foliage application, Wagner pot (Table 18, symbol D); format: in vivo, chinese sprangletop (Leptochloa chinensis); conditions: for Herbicidal effect on D (Chinese sprangletop), foliage application: amount of applied herbicide 320 g/ha
Procedure, shortened: (§2)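 Plants were sown in alluvial soil held under 0.1–0.5 cm standing water and grown 14 days in a greenhouse at 25–30 °C. An emulsifiable formulation, water-diluted to the set dose, was then sprayed onto the foliage, and effects were scored three weeks later using previously defined criteria.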

velvetleaf = assay: Test Example 4: herbicidal effect by soil treatment (Table 19, symbol M); format: in vivo, velvetleaf (Abutilon theophrasti)
Procedure, shortened: as §1

false cleavers = assay: Test Example 4: herbicidal effect by soil treatment (Table 19, symbol Q); format: in vivo, false cleavers (Galium spurium)
Procedure, shortened: as §1

windgrass [2] = assay: Test Example 4: herbicidal effect by soil treatment (Table 19, symbol L); format: in vivo, windgrass (Apera spica-venti)
Procedure, shortened: as §1

lambsquarters [3] = assay: Test Example 5: herbicidal effect by foliage application, plastic box (Table 20, symbol O); format: in vivo, lambsquarters (Chenopodium album); conditions: foliage application; for O (lambsquarters) herbicidal effect grade: evaluated 3 weeks after application; for O: lambsquarters, herbicidal effect grade: three weeks after application
Procedure, shortened: (§3)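 Sow seeds spot-wise in sterilized diluvial soil; cover with ~1.5 cm soil. Grow 14 days in greenhouse, 25° C. to 30° C. Spray foliage with emulsion diluted to predetermined amount. Rate effect after 3 weeks.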

redroot pigweed = assay: Test Example 4: herbicidal effect by soil treatment (Table 19, symbol N); format: in vivo, redroot pigweed (Amaranthus retroflexus)
Procedure, shortened: as §1

lambsquarters [4] = assay: Test Example 4: herbicidal effect by soil treatment (Table 19, symbol O); format: in vivo, lambsquarters (Chenopodium album)
Procedure, shortened: as §1

oval-leafed pondweed [5] = assay: Test Example 1: herbicidal activity, application before weed generation under submerged conditions (Table 16, symbol C); format: in vivo, oval-leafed pondweed (Monochoria vaginalis)
Procedure, shortened: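 Emulsion formulation, water-diluted to set dose, was put onto the flooded surface (4 cm depth, alluvial soil) the same day weeds were sown and 2.5-leaf rice transplanted. After 3 weeks at 25-30 °C under glass, each species was rated 0 (≤5% kill) to 5 (≥90% kill).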

chickweed = assay: Test Example 5: herbicidal effect by foliage application, plastic box (Table 20, symbol P); format: in vivo, common chickweed (Stellaria media); conditions: foliage application; for P (chickweed) herbicidal effect grade: evaluated 3 weeks after application; for P: chickweed, herbicidal effect grade: three weeks after application
Procedure, shortened: as §3

oval-leafed pondweed [6] = assay: Test Example 2: herbicidal activity, application during weed generation under submerged conditions (Table 17, symbol C); format: in vivo, oval-leafed pondweed (Monochoria vaginalis); conditions: for herbicidal effect grade, C: oval-leafed pondweed: application during weed generation under submerged conditions, amount of applied herbicide 320 g/ha; for herbicidal effect rating, C: oval-leafed pondweed: application during weed generation, submerged conditions
Procedure, shortened: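 Effect on each weed is rated three weeks post-treatment, using the same scoring criteria as the preceding test. Plants grow from mixed-sown seed in flooded alluvial soil (4 cm water) at 25° C. to 30° C., and are treated at one to two leaves with diluted emulsion dropped onto the water.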

windgrass [7] = assay: Test Example 5: herbicidal effect by foliage application, plastic box (Table 20, symbol L); format: in vivo, windgrass (Apera spica-venti); conditions: foliage application; for L (windgrass) herbicidal effect grade: evaluated 3 weeks after application; for L: windgrass, herbicidal effect grade: three weeks after application
Procedure, shortened: as §3

green foxtail = assay: Test Example 5: herbicidal effect by foliage application, plastic box (Table 20, symbol G); format: in vivo, green foxtail (Setaria viridis); conditions: foliage application; for G (green foxtail) herbicidal effect grade: evaluated 3 weeks after application; for G: green foxtail, herbicidal effect grade: three weeks after application
Procedure, shortened: as §3

southern crabgrass [8] = assay: Test Example 5: herbicidal effect by foliage application, plastic box (Table 20, symbol F); format: in vivo, southern crabgrass (Digitaria ciliaris); conditions: foliage application; for F (southern crabgrass) herbicidal effect grade: evaluated 3 weeks after application; for F: southern crabgrass, herbicidal effect grade: three weeks after application
Procedure, shortened: as §3

rice flat sedge = assay: Test Example 3: herbicidal effect by foliage application, Wagner pot (Table 18, symbol E); format: in vivo, rice flat sedge (Cyperus iria); conditions: for Herbicidal effect on E (rice flat sedge), foliage application: amount of applied herbicide 320 g/ha
Procedure, shortened: as §2

persian speedwell = assay: Test Example 5: herbicidal effect by foliage application, plastic box (Table 20, symbol R); format: in vivo, Persian speedwell (Veronica persica); conditions: foliage application; for R (persian speedwell) herbicidal effect grade: evaluated 3 weeks after application; for R: persian speedwell, herbicidal effect grade: three weeks after application
Procedure, shortened: as §3

barnyard grass = assay: Test Example 5: herbicidal effect by foliage application, plastic box (Table 20, symbol H); format: in vivo, barnyard grass (Echinochloa crus-galli); conditions: foliage application; for H (barnyard grass) herbicidal effect grade: evaluated 3 weeks after application; for H: barnyard grass, herbicidal effect grade: three weeks after application
Procedure, shortened: as §3

[9] = amount of applied herbicide 320 g/ha
[10] = amount of applied herbicide 310 g/ha

Compound	F: southern crabgrass, herbicidal effect grade (southern crabgrass [1]; [9])	Herbicidal effect on D (Chinese sprangletop), foliage application (Chinese sprangletop)	M: velvetleaf, herbicidal effect grade (velvetleaf; [9])	Q: false cleavers, herbicidal effect grade (false cleavers; [9])	L: windgrass, herbicidal effect grade (windgrass [2]; [9])	O (lambsquarters) herbicidal effect grade (lambsquarters [3]; 320 g/ha)	N: redroot pigweed, herbicidal effect grade (redroot pigweed; [9])	O: lambsquarters, herbicidal effect grade (lambsquarters [4]; [9])	Herbicidal effect, C: oval-leafed pondweed (oval-leafed pondweed [5]; [9])	P (chickweed) herbicidal effect grade (chickweed; 320 g/ha)	herbicidal effect grade, C: oval-leafed pondweed (oval-leafed pondweed [6])	L (windgrass) herbicidal effect grade (windgrass [7]; 320 g/ha)	G (green foxtail) herbicidal effect grade (green foxtail; 320 g/ha)	F (southern crabgrass) herbicidal effect grade (southern crabgrass [8]; 320 g/ha)	Herbicidal effect on E (rice flat sedge), foliage application (rice flat sedge)	R (persian speedwell) herbicidal effect grade (persian speedwell; 320 g/ha)	H (barnyard grass) herbicidal effect grade (barnyard grass; 320 g/ha)	also measured
Cc1nn(C)c(=O)c(-c2c(-c3ccc(Cl)cc3)sc3cccc(F)c23)c1O [11-001]	0 (Herbicidal rate of 5% or less (almost no effect))	3 (Herbicidal rate of 40% or more and less than 70%)	2 (Herbicidal rate of 20% or more and less than 40%)	0 (Herbicidal rate of 5% or less (almost no effect))	0 (Herbicidal rate of 5% or less (almost no effect))	5 (Herbicidal rate of 90% or more (almost completely withered))	5 (Herbicidal rate of 90% or more (almost completely withered))	4 (Herbicidal rate of 70% or more and less than 90%)	5 (Herbicidal rate of 90% or more (almost completely withered))	5 (Herbicidal rate of 90% or more (almost completely withered))	3 (Herbicidal rate of 40% or more and less than 70%)	0 (Herbicidal rate of 5% or less (almost no effect))	0 (Herbicidal rate of 5% or less (almost no effect))	0 (Herbicidal rate of 5% or less (almost no effect))	5 (Herbicidal rate of 90% or more (almost completely withered))	5 (Herbicidal rate of 90% or more (almost completely withered))	0 (Herbicidal rate of 5% or less (almost no effect))	–
COc1ccc2c(-c3c(O)c(C)nn(C)c3=O)c(-c3ccc(F)cc3OC)sc2c1 [3-076]	0 (Herbicidal rate of 5% or less (almost no effect))	–	0 (Herbicidal rate of 5% or less (almost no effect))	4 (Herbicidal rate of 70% or more and less than 90%)	5 (Herbicidal rate of 90% or more (almost completely withered))	–	5 (Herbicidal rate of 90% or more (almost completely withered))	4 (Herbicidal rate of 70% or more and less than 90%)	5 (Herbicidal rate of 90% or more (almost completely withered))	–	–	–	–	–	–	–	–	herbicidal effect on Chinese sprangletop (D) (Chinese sprangletop; 320 g/ha): 3 (Herbicidal rate of 40% or more and less than 70%); O: lambsquarters, herbicidal effect grade (lambsquarters [3]; 320 g/ha): 5 (Herbicidal rate of 90% or more (almost completely withered)); P: chickweed, herbicidal effect grade (chickweed; 320 g/ha): 5 (Herbicidal rate of 90% or more (almost completely withered)); herbicidal effect rating, C: oval-leafed pondweed (oval-leafed pondweed [6]; AAH 320 g/ha): 4 (Herbicidal rate of 70% or more and less than 90%); L: windgrass, herbicidal effect grade (windgrass [7]; 320 g/ha): 5 (Herbicidal rate of 90% or more (almost completely withered)); G: green foxtail, herbicidal effect grade (green foxtail; 320 g/ha): 5 (Herbicidal rate of 90% or more (almost completely withered)); F: southern crabgrass, herbicidal effect grade (southern crabgrass [8]; 320 g/ha): 3 (Herbicidal rate of 40% or more and less than 70%); herbicidal effect on rice flat sedge (E) (rice flat sedge; 320 g/ha): 5 (Herbicidal rate of 90% or more (almost completely withered)); R: persian speedwell, herbicidal effect grade (persian speedwell; 320 g/ha): 4 (Herbicidal rate of 70% or more and less than 90%); H: barnyard grass, herbicidal effect grade (barnyard grass; 320 g/ha): 3 (Herbicidal rate of 40% or more and less than 70%)
CCCC(=O)Oc1c(C)nn(C)c(=O)c1-c1c(-c2ccccc2OC)sc2cc(OCC)ccc12 [3-090]	–	–	–	–	–	–	–	–	–	–	–	–	–	–	–	–	–	F: southern crabgrass, herbicidal effect grade (southern crabgrass [1]; [10]): 3 (Herbicidal rate of 40% or more and less than 70%); herbicidal effect on Chinese sprangletop (D) (Chinese sprangletop; 310 g/ha): 5 (Herbicidal rate of 90% or more (almost completely withered)); M: velvetleaf, herbicidal effect grade (velvetleaf; [10]): 3 (Herbicidal rate of 40% or more and less than 70%); Q: false cleavers, herbicidal effect grade (false cleavers; [10]): 5 (Herbicidal rate of 90% or more (almost completely withered)); L: windgrass, herbicidal effect grade (windgrass [2]; [10]): 0 (Herbicidal rate of 5% or less (almost no effect)); O: lambsquarters, herbicidal effect grade (lambsquarters [3]; 310 g/ha): 5 (Herbicidal rate of 90% or more (almost completely withered)); N: redroot pigweed, herbicidal effect grade (redroot pigweed; [10]): 4 (Herbicidal rate of 70% or more and less than 90%); O: lambsquarters, herbicidal effect grade (lambsquarters [4]; [10]): 4 (Herbicidal rate of 70% or more and less than 90%); Herbicidal effect, C: oval-leafed pondweed (oval-leafed pondweed [5]; [10]): 4 (Herbicidal rate of 70% or more and less than 90%); P: chickweed, herbicidal effect grade (chickweed; 310 g/ha): 5 (Herbicidal rate of 90% or more (almost completely withered)); herbicidal effect rating, C: oval-leafed pondweed (oval-leafed pondweed [6]; AAH 310 g/ha): 5 (Herbicidal rate of 90% or more (almost completely withered)); L: windgrass, herbicidal effect grade (windgrass [7]; 310 g/ha): 5 (Herbicidal rate of 90% or more (almost completely withered)); G: green foxtail, herbicidal effect grade (green foxtail; 310 g/ha): 4 (Herbicidal rate of 70% or more and less than 90%); F: southern crabgrass, herbicidal effect grade (southern crabgrass [8]; 310 g/ha): 3 (Herbicidal rate of 40% or more and less than 70%); herbicidal effect on rice flat sedge (E) (rice flat sedge; 310 g/ha): 5 (Herbicidal rate of 90% or more (almost completely withered)); R: persian speedwell, herbicidal effect grade (persian speedwell; 310 g/ha): 5 (Herbicidal rate of 90% or more (almost completely withered)); H: barnyard grass, herbicidal effect grade (barnyard grass; 310 g/ha): 5 (Herbicidal rate of 90% or more (almost completely withered))
CSc1ccc(-c2oc3ccc(C)cc3c2-c2c(O)c(C)nn(C)c2=O)cc1 [9-055]	0 (Herbicidal rate of 5% or less (almost no effect))	5 (Herbicidal rate of 90% or more (almost completely withered))	5 (Herbicidal rate of 90% or more (almost completely withered))	0 (Herbicidal rate of 5% or less (almost no effect))	0 (Herbicidal rate of 5% or less (almost no effect))	5 (Herbicidal rate of 90% or more (almost completely withered))	5 (Herbicidal rate of 90% or more (almost completely withered))	4 (Herbicidal rate of 70% or more and less than 90%)	4 (Herbicidal rate of 70% or more and less than 90%)	5 (Herbicidal rate of 90% or more (almost completely withered))	3 (Herbicidal rate of 40% or more and less than 70%)	4 (Herbicidal rate of 70% or more and less than 90%)	3 (Herbicidal rate of 40% or more and less than 70%)	4 (Herbicidal rate of 70% or more and less than 90%)	5 (Herbicidal rate of 90% or more (almost completely withered))	5 (Herbicidal rate of 90% or more (almost completely withered))	4 (Herbicidal rate of 70% or more and less than 90%)	–
